Assay type in all cases: in vivo, male Sprague Dawley rats
For assay [1], the system named is oxaliplatin-induced mechanical allodynia. The assay can be described thus: 7-day treatment of established OIPN, paw withdrawal threshold. To be noted: pregabalin 30 mg/kg PO on Days 7 and 14, P < .01. As for the experimental part: (§1) Male Sprague Dawley rats (150–210 g) were housed in groups of 4 in intra-ventilated Perspex home cages. Humidity, temperature (21 ± 1 °C), and lighting (light-dark cycle of 12:12 hours) were controlled and maintained in the home cages, with food and water available ad libitum. Rats acclimatised to the home cages for at least 1 week. All experiments were carried out according to the Animals (Scientific Procedures) Act, 1986 (U.K. Government Home Office). The study was performed under the Home Office project licence number PP0847012. OIPN was established with a single dose of OXA (10 mg/kg, IP).
Body weight was monitored throughout the study, and terminal plasma and whole brain samples were taken for bioanalysis.
(§2) Tactile allodynia (primary outcome measure) was assessed using paw withdrawal threshold (PWT), a measure of pain sensitivity. PWT was evaluated using calibrated von-Frey monofilaments (Touch-Test Sensory Evaluator; Scientific Marketing Associates) applied to the plantar surface of the left hind paw. PWT was determined by increasing and decreasing stimulus intensity and estimated using Dixon’s up-down method.[38],[39]
(§3) To acquire baseline readings, pain behaviour was assessed on 3 consecutive days (Days −3, −2, −1). […] NPB expressed as a percentage change from HBL was calculated as follows (HBL-NPB)/HBL*100. […]

For assay [2] the test system is unchanged. Briefly: Prevention of OIPN, paw withdrawal threshold. The note with it: pregabalin 30 mg/kg PO QD. As for the experimental part: as §1
(§4) Pain measurements were made on Days 5/6 (when neuropathy has normally developed) and at the end of the study. […] Terminal plasma samples were taken for bioanalysis and proteomics (Somalogic). Brain regions involved in pain processing, that is, prefrontal cortex (PFC), periaqueductal grey (PAG), whole spinal cords (SC), and L4-L6 dorsal root ganglia, were collected for lipidomic and genomic (Genewiz, China) analyses.
as §2
To acquire baseline readings, pain behaviour was assessed on 3 consecutive days (Days −3, −2, −1). The mean of Day −2 and Day −1 was considered the healthy baseline (HBL) prior to OIPN induction. On Days 5 and 6 after OXA injection, thresholds were reassessed. The mean of Days 5 and 6 was considered the neuropathic baseline (NPB). Animals were then ranked and randomised (based on a Latin square design) to treatment groups according to the percentage change of the mean thresholds observed in the NPB compared to the HBL. NPB expressed as a percentage change from HBL was calculated as follows (HBL-NPB)/HBL*100. All behavioural assessment was done by an experimenter blinded to the identity of the treatment. Separate people were responsible for dosing and assessment/data analysis.

In assay [3] the test system is oxaliplatin-induced thermal hyperalgesia. The assay can be described thus: Prevention of OIPN, cold plate latency. To be noted: pregabalin 30 mg/kg PO QD, P < .001. As for the experimental part: as §1
Pain measurements were made on Days 5/6 (when neuropathy has normally developed) and at the end of the study. […] Terminal plasma samples were taken for bioanalysis and proteomics (Somalogic). […]
Thermal hyperalgesia was assessed using a cold plate (Bioseb, France) set at a fixed temperature of 15 °C. Latency to the first escape behaviour from the plate was measured indicating discomfort to the thermal stimulation. […]
as §3

The nature of assay [4]: Prevention of OIPN, body weight. The note with it: pregabalin 30 mg/kg PO QD.
Text: as §4

In the case of `CC(C)C[C@H](CN)CC(=O)O` [pregabalin, Pregabalin, reference compound], the “PWT scores versus vehicle” value in assay [1] is listed as “significantly higher PWT scores than vehicle”. Besides, the “PWT on Day 14 compared to HBL” value in assay [2] was “neither the ART26.12 nor the pregabalin groups showed significant allodynia”. Moreover, the “PWT on Day 5/6 compared to HBL” value in assay [2] (P < .05) was “significantly lower PWTs”. For the same compound, in assay [3], the “cold plate latencies on Day 14 versus vehicle” value is reported as “significantly higher cold plate latencies than the vehicle group”. The “body weight in first 4 days post-administration of OXA” value in assay [4] was “weight loss”.
